US20230233569A1 (Revolution Medicines, Inc., priority 2020, published 2023)

Legend:
KRAS G12C = KRAS G12C (Homo sapiens, UniProt P01116+P62937, G12C); test: Ras-Raf disruption / FRET / MOA assay (BRAF RBD); assay type: biochemical; conditions: KRAS G12C FRET data IC50, Ras-Raf disruption, with Cyclophilin A
Summary of the method: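 TR-FRET read-out after 1.5 h with anti-His Eu-W1024 (10 nM) and anti-GST APC (50 nM), following 3 h at 25 °C of compound (top 30 μM, 3-fold, 10 points) with 25 μM Cyclophilin A, 12.5 nM GMPPNP-loaded K-Ras G12C and 50 nM BRAF RBD; IC50 reported.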

NCI-H358 (K-Ras G12C) = test: CellTiter-Glo cell viability assay; assay type: cell-based; conditions: Homo sapiens, NCI-H358, 120 h, read-out: H358 Cell Viability assay data IC50, K-Ras G12C, 5-day treatment
Summary of the method: (§1)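 Cells already in plates received compound by direct dispensing. After incubation to day 5, plates sat at room temperature roughly 30 minutes, then ATP-based luminescence was measured and values derived from a four-parameter fit of DMSO-normalized data.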

AsPC-1 (K-Ras G12D) [1] = test: CellTiter-Glo cell viability assay; assay type: cell-based; conditions: Homo sapiens, ASPC1, 120 h, read-out: AsPC-1 Cell Viability assay data IC50, K-Ras G12D, 5-day treatment
Summary of the method: as §1

KRAS G13C = KRAS G13C (Homo sapiens, UniProt P01116+P62937, G13C); test: Ras-Raf disruption / FRET / MOA assay (BRAF RBD); assay type: biochemical; conditions: KRAS G13C FRET data IC50, Ras-Raf disruption, with Cyclophilin A
KRAS G13C, sequence (P01116 1-169 isoform P01116-2 G13C limits assumed): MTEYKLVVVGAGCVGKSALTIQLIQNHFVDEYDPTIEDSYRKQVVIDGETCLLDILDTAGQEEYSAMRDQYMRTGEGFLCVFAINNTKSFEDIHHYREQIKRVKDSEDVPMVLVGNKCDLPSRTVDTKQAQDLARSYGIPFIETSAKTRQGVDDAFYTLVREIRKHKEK
KRAS G13C, sequence (P62937 whole entry): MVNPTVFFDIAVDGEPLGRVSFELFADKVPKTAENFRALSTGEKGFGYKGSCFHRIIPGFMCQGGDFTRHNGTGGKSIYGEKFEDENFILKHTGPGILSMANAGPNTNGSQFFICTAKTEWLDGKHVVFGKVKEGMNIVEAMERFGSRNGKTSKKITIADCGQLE
Summary of the method: (§2)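 Compound-induced Ras–Cyclophilin A ternary complex disrupting BRAF RBD binding, read as IC50 from reduced TR-FRET ratio relative to DMSO. Final: Ras-GMPPNP 12.5 nM, BRAF RBD 50 nM, Cyclophilin A 25 μM, top compound 30 μM (3-fold, 10 points); 3 h at 25 °C, then 1.5 h with detection antibodies.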

KRAS G12S = KRAS G12S (Homo sapiens, UniProt P01116+P62937, G12S); test: Ras-Raf disruption / FRET / MOA assay (BRAF RBD); assay type: biochemical; conditions: KRAS G12S FRET data IC50, Ras-Raf disruption, with Cyclophilin A
KRAS G12S, sequence (P01116 1-169 isoform P01116-2 G12S limits assumed): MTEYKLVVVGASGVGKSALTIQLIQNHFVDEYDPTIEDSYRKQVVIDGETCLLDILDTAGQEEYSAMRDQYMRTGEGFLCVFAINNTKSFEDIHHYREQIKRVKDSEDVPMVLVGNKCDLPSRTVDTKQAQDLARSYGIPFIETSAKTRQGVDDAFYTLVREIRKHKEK
KRAS G12S, sequence (P62937 whole entry): as the sequence (P62937 whole entry) above
Summary of the method: as §2

KRAS G13D = KRAS G13D (Homo sapiens, UniProt P01116+P62937, G13D); test: Ras-Raf disruption / FRET / MOA assay (BRAF RBD); assay type: biochemical; conditions: KRAS G13D FRET data IC50, Ras-Raf disruption, with Cyclophilin A
KRAS G13D, sequence (P01116 1-169 isoform P01116-2 G13D limits assumed): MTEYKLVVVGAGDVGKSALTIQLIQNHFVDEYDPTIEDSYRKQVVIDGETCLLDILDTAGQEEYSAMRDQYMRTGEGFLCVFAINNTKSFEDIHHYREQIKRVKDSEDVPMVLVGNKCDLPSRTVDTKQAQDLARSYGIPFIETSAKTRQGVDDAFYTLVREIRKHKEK
KRAS G13D, sequence (P62937 whole entry): as the sequence (P62937 whole entry) above
Summary of the method: as §2

KRAS G12V = KRAS G12V (Homo sapiens, UniProt P01116+P62937, G12V); test: Ras-Raf disruption / FRET / MOA assay (BRAF RBD); assay type: biochemical; conditions: KRAS G12V FRET data IC50, Ras-Raf disruption, with Cyclophilin A
KRAS G12V, sequence (P01116 1-169 isoform P01116-2 G12V limits assumed): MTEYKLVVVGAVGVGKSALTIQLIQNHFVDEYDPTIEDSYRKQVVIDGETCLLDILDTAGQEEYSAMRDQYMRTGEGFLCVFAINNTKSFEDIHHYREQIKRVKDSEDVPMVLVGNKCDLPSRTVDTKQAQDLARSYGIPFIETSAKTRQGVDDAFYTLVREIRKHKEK
KRAS G12V, sequence (P62937 whole entry): as the sequence (P62937 whole entry) above
Summary of the method: as §2

NRAS G12C = NRAS G12C (Homo sapiens, UniProt P01111+P62937, G12C); test: Ras-Raf disruption / FRET / MOA assay (BRAF RBD); assay type: biochemical; conditions: NRAS G12C FRET data IC50, NRAS G12C
NRAS G12C, sequence (P01111 whole entry G12C): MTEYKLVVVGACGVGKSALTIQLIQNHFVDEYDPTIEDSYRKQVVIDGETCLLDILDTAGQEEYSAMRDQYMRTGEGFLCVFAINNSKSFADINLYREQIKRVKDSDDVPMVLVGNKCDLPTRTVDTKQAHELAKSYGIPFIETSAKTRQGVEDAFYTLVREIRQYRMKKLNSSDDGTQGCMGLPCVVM
NRAS G12C, sequence (P62937 whole entry): as the sequence (P62937 whole entry) above
Summary of the method: as §2

KRAS G12D = KRAS G12D (Homo sapiens, UniProt P01116+P62937, G12D); test: Ras-Raf disruption / FRET / MOA assay (BRAF RBD); assay type: biochemical; conditions: KRAS G12D FRET data IC50, Ras-Raf disruption, with Cyclophilin A
KRAS G12D, sequence (P01116 1-169 isoform P01116-2 G12D limits assumed): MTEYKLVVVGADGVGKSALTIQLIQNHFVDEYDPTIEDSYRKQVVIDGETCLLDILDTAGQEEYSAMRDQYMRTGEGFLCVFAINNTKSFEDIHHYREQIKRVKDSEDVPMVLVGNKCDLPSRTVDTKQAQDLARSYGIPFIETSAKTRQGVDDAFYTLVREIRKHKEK
KRAS G12D, sequence (P62937 whole entry): as the sequence (P62937 whole entry) above
Summary of the method: as §2

KRAS WT = KRAS WT (Homo sapiens, UniProt P01116+P62937); test: Ras-Raf disruption / FRET / MOA assay (BRAF RBD); assay type: biochemical; conditions: KRAS WT FRET data IC50, Ras-Raf disruption, with Cyclophilin A
KRAS WT, sequence (P01116 1-169 isoform P01116-2 limits assumed): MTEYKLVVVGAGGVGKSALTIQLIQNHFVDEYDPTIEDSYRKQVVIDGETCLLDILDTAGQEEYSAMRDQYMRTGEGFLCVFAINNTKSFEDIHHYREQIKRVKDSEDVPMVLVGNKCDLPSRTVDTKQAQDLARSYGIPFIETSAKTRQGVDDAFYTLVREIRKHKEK
KRAS WT, sequence (P62937 whole entry): as the sequence (P62937 whole entry) above
Summary of the method: as §2

AsPC-1 (K-Ras G12D) [2] = test: Potency assay: pERK; assay type: cell-based; conditions: Homo sapiens, ASPC1, read-out: pERK EC50
NRAS WT = NRAS WT (Homo sapiens, UniProt P01111+P62937); test: Ras-Raf disruption / FRET / MOA assay (BRAF RBD); assay type: biochemical
NRAS WT, sequence (P01111 whole entry): as the sequence (P01111 whole entry G12C) above, with C12G counted along it
NRAS WT, sequence (P62937 whole entry): as the sequence (P62937 whole entry) above
Summary of the method: as §2

NRAS Q61K = NRAS Q61K (Homo sapiens, UniProt P01111+P62937, Q61K); test: Ras-Raf disruption / FRET / MOA assay (BRAF RBD); assay type: biochemical
NRAS Q61K, sequence (P01111 whole entry Q61K): as the sequence (P01111 whole entry G12C) above, with C12G, Q61K counted along it
NRAS Q61K, sequence (P62937 whole entry): as the sequence (P62937 whole entry) above
Summary of the method: as §2

NRAS Q61R = NRAS Q61R (Homo sapiens, UniProt P01111+P62937, Q61R); test: Ras-Raf disruption / FRET / MOA assay (BRAF RBD); assay type: biochemical
NRAS Q61R, sequence (P01111 whole entry Q61R): as the sequence (P01111 whole entry G12C) above, with C12G, Q61R counted along it
NRAS Q61R, sequence (P62937 whole entry): as the sequence (P62937 whole entry) above
Summary of the method: as §2

KRAS Q61H = KRAS Q61H (Homo sapiens, UniProt P01116+P62937, Q61H); test: Ras-Raf disruption / FRET / MOA assay (BRAF RBD); assay type: biochemical
KRAS Q61H, sequence (P01116 1-169 isoform P01116-2 Q61H limits assumed): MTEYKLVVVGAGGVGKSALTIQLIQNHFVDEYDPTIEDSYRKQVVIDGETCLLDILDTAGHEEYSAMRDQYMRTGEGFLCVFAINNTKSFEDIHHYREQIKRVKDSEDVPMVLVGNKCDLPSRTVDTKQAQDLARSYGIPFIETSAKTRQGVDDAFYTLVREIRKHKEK
KRAS Q61H, sequence (P62937 whole entry): as the sequence (P62937 whole entry) above
Summary of the method: as §2

KRAS G12C, sequence (P01116 1-169 isoform P01116-2 G12C limits assumed): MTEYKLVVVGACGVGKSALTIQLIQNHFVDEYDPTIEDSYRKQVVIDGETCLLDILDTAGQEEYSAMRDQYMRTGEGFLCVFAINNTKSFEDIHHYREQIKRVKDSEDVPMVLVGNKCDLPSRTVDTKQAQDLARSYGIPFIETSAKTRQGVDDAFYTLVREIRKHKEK
KRAS G12C, sequence (P62937 whole entry): as the sequence (P62937 whole entry) above

| Structure (SMILES) | IC50 (KRAS G12C) [nM] | IC50 (NCI-H358 (K-Ras G12C)) [nM] | IC50 (AsPC-1 (K-Ras G12D) [1]) [nM] | IC50 (KRAS G13C) [nM] | IC50 (KRAS G12S) [nM] | IC50 (KRAS G13D) [nM] | IC50 (KRAS G12V) [nM] | IC50 (NRAS G12C) [nM] | IC50 (KRAS G12D) [nM] | IC50 (KRAS WT) [nM] | EC50 (AsPC-1 (K-Ras G12D) [2]) [nM] | IC50 (NRAS WT) [nM] | IC50 (NRAS Q61K) [nM] | IC50 (NRAS Q61R) [nM] | IC50 (KRAS Q61H) [nM] |
| --- | --- | --- | --- | --- | --- | --- | --- | --- | --- | --- | --- | --- | --- | --- | --- |
| CCn1c(-c2cccnc2[C@H](C)OC)c2c3cc(ccc31)-c1cc(O)cc(c1)C[C@H](NC(=O)[C@H](C(C)C)N(C)C(=O)CN(C)C(=O)[C@@H]1CN1CCCOC)C(=O)N1CCC[C@H](N1)C(=O)OCC(C)(C)C2 (stereo partly shown) [Example 137] | < 10 | < 10 | 100 to 1000 | 10 to 100 | 10 to 100 | 10 to 100 | 10 to 100 | < 10 | 10 to 100 | 10 to 100 | < 5000 |  |  |  |  |
| CCn1c(-c2cccnc2[C@H](C)OC)c2c3cc(ccc31)-c1cc(O)cc(c1)C[C@H](NC(=O)[C@H](C(C)C)N(C)C(=O)CNC(=O)[C@@H]1N[C@@H]1C1CC1)C(=O)N1CCC[C@H](N1)C(=O)OCC(C)(C)C2 [Example 141] | 10 to 100 | 100 to 1000 | 100 to 1000 | 10 to 100 | 10 to 100 | 100 to 1000 | 10 to 100 | 10 to 100 | 10 to 100 | 10 to 100 | < 5000 | 10 to 100 | 100 to 1000 | 100 to 1000 | 10 to 100 |
| CCn1c(-c2cccnc2[C@H](C)OC)c2c3cc(ccc31)-c1cc(O)cc(c1)C[C@H](NC(=O)[C@H](C(C)C)N(C)C(=O)CN(C)C(=O)[C@H]1CN1C(C)C)C(=O)N1CCC[C@H](N1)C(=O)OCC(C)(C)C2 (stereo partly shown) [Example 142] | < 10 | < 10 | 100 to 1000 | 10 to 100 | 10 to 100 | 100 to 1000 | 100 to 1000 | < 10 | 100 to 1000 | 100 to 1000 | < 5000 |  |  |  |  |
| CCn1c(-c2cccnc2[C@H](C)OC)c2c3cc(ccc31)-c1cc(O)cc(c1)C[C@H](NC(=O)[C@H](C(C)C)N(C)C(=O)CN(C)C(=O)[C@@H]1CN1C(C)C)C(=O)N1CCC[C@H](N1)C(=O)OCC(C)(C)C2 (stereo partly shown) [Example 148] | < 10 | < 10 | 100 to 1000 | 10 to 100 | 10 to 100 | 10 to 100 | 10 to 100 | < 10 | 10 to 100 | 10 to 100 | < 5000 |  |  |  |  |
| CCn1c(-c2cccnc2[C@H](C)OC)c2c3cc(ccc31)-c1cc(O)cc(c1)C[C@H](NC(=O)[C@H](C(C)C)N(C)C(=O)CN(C)C(=O)[C@H]1CN1Cc1ccccc1F)C(=O)N1CCC[C@H](N1)C(=O)OCC(C)(C)C2 (stereo partly shown) [Example 155] | 10 to 100 | < 10 | 100 to 1000 | 10 to 100 | 10 to 100 | 100 to 1000 | 10 to 100 | < 10 | 100 to 1000 | 10 to 100 | < 5000 |  |  |  |  |
| CCn1c(-c2cccnc2[C@H](C)OC)c2c3cc(ccc31)-c1cc(O)cc(c1)C[C@H](NC(=O)[C@H](C(C)C)N(C)C(=O)CN(C)C(=O)[C@H]1CN1Cc1ccccc1CO)C(=O)N1CCC[C@H](N1)C(=O)OCC(C)(C)C2 (stereo partly shown) [Example 156] | < 10 | < 10 | 100 to 1000 | 10 to 100 | 10 to 100 | 100 to 1000 | 10 to 100 | < 10 | 100 to 1000 | 10 to 100 | < 5000 |  |  |  |  |
| CCn1c(-c2cccnc2[C@H](C)OC)c2c3cc(ccc31)-c1cc(O)cc(c1)C[C@H](NC(=O)[C@H](C(C)C)N(C)C(=O)CN(C)C(=O)[C@@H]1CN1CCOC)C(=O)N1CCC[C@H](N1)C(=O)OCC(C)(C)C2 (stereo partly shown) [Example 160] | 10 to 100 | < 10 | 100 to 1000 | 10 to 100 | 10 to 100 | 100 to 1000 | 10 to 100 | < 10 | 100 to 1000 | 10 to 100 | < 5000 |  |  |  |  |
| CCn1c(-c2cccnc2[C@H](C)OC)c2c3cc(ccc31)-c1cc(O)cc(c1)C[C@H](NC(=O)[C@H](C(C)C)N(C)C(=O)CN(C)C(=O)[C@H]1CN1CCCOC)C(=O)N1CCC[C@H](N1)C(=O)OCC(C)(C)C2 (stereo partly shown) [Example 201] | < 10 | < 10 | 100 to 1000 | 10 to 100 | 10 to 100 | 100 to 1000 | 10 to 100 | < 10 | 100 to 1000 | 10 to 100 | < 5000 |  |  |  |  |
| CCn1c(-c2cccnc2[C@H](C)OC)c2c3cc(ccc31)-c1cc(O)cc(c1)C[C@H](NC(=O)[C@H](C(C)C)N(C)C(=O)CN(C)C(=O)[C@@H]1CN1CCCOC(C)=O)C(=O)N1CCC[C@H](N1)C(=O)OCC(C)(C)C2 (stereo partly shown) [Example 267] | < 10 | < 10 | 100 to 1000 | 10 to 100 | 10 to 100 | 100 to 1000 | 10 to 100 | < 10 | 10 to 100 | 10 to 100 | < 5000 |  | 100 to 1000 | 100 to 1000 | 10 to 100 |
